The experiment has as its target T1, PLK4 (Homo sapiens, UniProt O00444).
T1 sequence (O00444 1-970): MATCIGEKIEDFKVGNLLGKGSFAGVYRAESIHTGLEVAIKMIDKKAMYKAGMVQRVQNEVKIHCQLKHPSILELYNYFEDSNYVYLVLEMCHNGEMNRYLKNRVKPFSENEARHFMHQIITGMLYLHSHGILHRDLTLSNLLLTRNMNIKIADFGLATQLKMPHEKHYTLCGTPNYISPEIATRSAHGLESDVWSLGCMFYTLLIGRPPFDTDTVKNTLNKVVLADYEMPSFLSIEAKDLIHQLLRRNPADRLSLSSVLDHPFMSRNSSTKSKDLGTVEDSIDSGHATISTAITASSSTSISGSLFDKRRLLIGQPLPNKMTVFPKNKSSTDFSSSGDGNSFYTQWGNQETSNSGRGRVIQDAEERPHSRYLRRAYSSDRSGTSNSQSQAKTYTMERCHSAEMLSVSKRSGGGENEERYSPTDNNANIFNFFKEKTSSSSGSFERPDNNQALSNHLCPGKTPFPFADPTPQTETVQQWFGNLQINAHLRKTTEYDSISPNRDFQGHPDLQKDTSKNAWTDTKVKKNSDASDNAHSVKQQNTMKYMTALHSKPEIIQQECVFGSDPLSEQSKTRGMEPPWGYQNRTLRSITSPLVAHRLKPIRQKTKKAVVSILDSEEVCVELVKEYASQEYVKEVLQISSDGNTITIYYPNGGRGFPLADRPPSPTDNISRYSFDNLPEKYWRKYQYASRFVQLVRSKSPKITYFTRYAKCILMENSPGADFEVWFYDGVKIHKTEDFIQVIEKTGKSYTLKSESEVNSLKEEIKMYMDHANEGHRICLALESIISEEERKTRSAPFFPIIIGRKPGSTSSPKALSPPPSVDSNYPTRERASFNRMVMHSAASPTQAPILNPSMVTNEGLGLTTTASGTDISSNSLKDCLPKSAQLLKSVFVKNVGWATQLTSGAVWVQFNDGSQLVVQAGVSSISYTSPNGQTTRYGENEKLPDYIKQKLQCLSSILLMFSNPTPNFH
As to the kind of experiment: Activity (IC50) of the Table 1 compounds as PLK4 inhibitors. The class given is biochemical. Particulars: Table 1, IC50 class.

53 molecules from patent US11612604B2, “Methods of treating cancer with PLK4 inhibitors” (LUDWIG INSTITUTE FOR CANCER RESEARCH LTD, priority 2017, dated 2023) can be followed below.

Molecules are shown by their SMILES. Where only a bound is given, the exact number is not on record here.

Broadly, the IC50 is the concentration needed to halve the response being measured. Higher therefore signals weaker potency in that assay.

In turn, `Cc1cc(Nc2nc(Sc3ccc(NC(=O)C4CC4)cc3)nc(C)c2C)n[nH]1` yielded an IC50 of less than 100 nM.

Regarding `Cc1cc(Nc2nc(Sc3ccc(NC(=O)C4CCCC4)cc3)nc3c2C(C)CC3)n[nH]1` (centres unmarked), the IC50 is less than 100 nM.

For the molecule `COc1c(Nc2cc(C)[nH]n2)nc(Sc2ccc(NC(=O)C3CC3)cc2)nc1N1CCN(C(C)C)CC1`, the IC50 was less than 100 nM.

`COc1c(Nc2cc(C)[nH]n2)nc(Sc2ccc(NC(=O)C3CC3)cc2)nc1N1CCN(C(C)=O)CC1` returned an IC50 of less than 100 nM.

`CCN1CCN(c2nc(Sc3ccc(NC(=O)C4CC4)cc3)nc(Nc3cc(C)[nH]n3)c2OC)CC1`: the IC50 is less than 100 nM.

Molecule `COCCN1CCN(c2nc(Sc3ccc(NC(=O)C4CC4)cc3)nc(Nc3cc(C)[nH]n3)c2OC)CC1` had an IC50 of less than 100 nM.

Take `COC(=O)CC1CCN(c2nc(Sc3ccc(S(=O)(=O)C(C)(C)c4cccc([N+](=O)[O-])c4F)cc3F)nc(Nc3cc(C)[nH]n3)c2OC)CC1`: the IC50 was less than 100 nM.

On to `COc1c(Nc2cc(C)[nH]n2)nc(Sc2ccc(S(=O)(=O)C(C)(C)c3cccc([N+](=O)[O-])c3F)cc2F)nc1N1CCC(CC(=O)O)CC1`, for which the IC50 was less than 100 nM.

Turning to `COc1c(Nc2cc(C)[nH]n2)nc(Sc2ccc(S(=O)(=O)C(C)(C)c3cccc([N+](=O)[O-])c3F)cc2F)nc1N1CCC(N(C)C)C1` (centres unmarked), the IC50 is less than 100 nM.

For `COc1c(Nc2cc(C)[nH]n2)nc(Sc2ccc(S(=O)(=O)C(C)(C)c3cccc([N+](=O)[O-])c3F)cc2F)nc1N1CCC(OC)C1` (centres unmarked), the IC50 is less than 100 nM.

In the case of `COc1c(Nc2cc(C)[nH]n2)nc(Sc2ccc(S(=O)(=O)C(C)(C)c3cccc([N+](=O)[O-])c3F)cc2F)nc1N1CCC(CCO)CC1`, the IC50 is less than 100 nM.

`COCCC1CCN(c2nc(Sc3ccc(S(=O)(=O)C(C)(C)c4cccc([N+](=O)[O-])c4F)cc3F)nc(Nc3cc(C)[nH]n3)c2OC)CC1`: the IC50 is less than 100 nM.

As to `COc1c(Nc2cc(C)[nH]n2)nc(Sc2ccc(S(=O)(=O)C(C)(C)c3cccc([N+](=O)[O-])c3F)cc2F)nc1N1CCN(C(=O)CN(C)C)CC1`, the IC50 was less than 100 nM.

`COc1c(Nc2cc(C)[nH]n2)nc(Sc2ccc(S(=O)(=O)C(C)(C)c3c(F)c(F)cc(Cl)c3F)cc2F)nc1N1CCOCC1`: the IC50 is less than 100 nM.

`COc1c(Nc2cc(C)[nH]n2)nc(Sc2ccc(S(=O)(=O)C(C)(C)c3cccc([N+](=O)[O-])c3F)cc2F)nc1N1CCC(CCN)CC1`: the IC50 was less than 100 nM.

Consider `COc1c(Nc2cc(C)[nH]n2)nc(Sc2ccc(S(=O)(=O)Cc3c(F)c(F)c(F)c(F)c3F)cc2F)nc1N1CCOCC1`, for which the IC50 is less than 100 nM.

`CNCCC1CCN(c2nc(Sc3ccc(S(=O)(=O)C(C)(C)c4cccc([N+](=O)[O-])c4F)cc3F)nc(Nc3cc(C)[nH]n3)c2OC)CC1` displayed an IC50 of less than 100 nM.

The molecule `COc1c(Nc2cc(C)[nH]n2)nc(Sc2ccc(S(=O)(=O)C(C)(C)c3c(F)c(F)c(F)c(F)c3F)cc2F)nc1N1CCOCC1` came in with an IC50 of less than 100 nM.

With `COc1c(Nc2cc(C)[nH]n2)nc(Sc2ccc(S(=O)(=O)C(C)(C)C)cc2)nc1N1CCN(CCN(C)C)CC1`, the 50% inhibitory concentration (IC50) is less than 100 nM.

Molecule `COc1c(Nc2cc(C)[nH]n2)nc(Sc2ccc(S(=O)(=O)C(C)(C)c3cccc([N+](=O)[O-])c3F)cc2F)nc1N1CCC(NC(C)=O)CC1` came in with an IC50 of less than 100 nM.

As to `COc1c(Nc2cc(C)[nH]n2)nc(Sc2ccc(S(=O)(=O)C(C)(C)c3cccc([N+](=O)[O-])c3F)cc2F)nc1N1CC[C@H](NC(C)=O)C1`, the IC50 is less than 100 nM.

`COc1c(Nc2cc(C)[nH]n2)nc(Sc2ccc(S(=O)(=O)C(C)(C)c3cccc([N+](=O)[O-])c3F)cc2F)nc1N1CCN(CC(=O)N(C)C)CC1` returned an IC50 of less than 100 nM.

In the case of `COc1c(Nc2cc(C)[nH]n2)nc(Sc2ccc(S(=O)(=O)C(C)(C)c3cccc([N+](=O)[O-])c3F)cc2F)nc1N1CC[C@H](N(C)C)C1`, the IC50 was less than 100 nM.

Regarding `COc1c(Nc2cc(C)[nH]n2)nc(Sc2ccc(S(=O)(=O)C(C)(C)c3cccc([N+](=O)[O-])c3F)cc2F)nc1N1CC[C@@H](N(C)C)C1`, the IC50 was less than 100 nM.

In turn, `COc1c(Nc2cc(C)[nH]n2)nc(Sc2ccc(S(=O)(=O)C(C)(C)c3c(F)c(F)cc(F)c3F)cc2F)nc1N1CCC(NC(C)=O)CC1` came in with an IC50 of less than 100 nM.

`COc1c(Nc2cc(C)[nH]n2)nc(Sc2ccc(S(=O)(=O)C(C)(C)c3c(F)c(F)cc(F)c3F)cc2F)nc1N1CC[C@H](N(C)C)C1` displayed an IC50 of less than 100 nM.

Molecule `COc1c(Nc2cc(C)[nH]n2)nc(Sc2ccc(S(=O)(=O)C(C)(C)c3c(F)c(F)cc(F)c3F)cc2F)nc1N1CCC(CC(=O)N(C)C)CC1` returned an IC50 of less than 100 nM.

Molecule `COc1c(Nc2cc(C)[nH]n2)nc(Sc2ccc(S(=O)(=O)C(C)(C)c3c(F)c(F)cc(F)c3F)cc2F)nc1N1CC[C@@H](N(C)C)C1` came in with an IC50 of less than 100 nM.

The molecule `COc1c(Nc2cc(C)[nH]n2)nc(Sc2ccc(S(=O)(=O)C(C)(C)c3c(F)c(F)c(F)c(F)c3F)cc2F)nc1N1CCC(N(C)C)CC1` returned an IC50 of less than 100 nM.

`COc1c(Nc2cc(C)[nH]n2)nc(Sc2ccc(S(=O)(=O)C(C)(C)c3c(F)c(F)c(F)c(F)c3F)cc2F)nc1N1CCC(CCN(C)C)CC1` yielded an IC50 of less than 100 nM.

`COc1c(Nc2cc(C)[nH]n2)nc(Sc2ccc(S(=O)(=O)C(C)(C)c3cccc([N+](=O)[O-])c3F)cc2F)nc1N1CCC(O)C1` (centres unmarked) registered an IC50 of less than 100 nM.

For `COc1c(Nc2cc(C)[nH]n2)nc(Sc2ccc(S(=O)(=O)C(C)(C)c3c(F)c(F)c(F)c(F)c3F)cc2F)nc1N1CCN(CCN(C)C)CC1`, the IC50 was less than 100 nM.

Consider `COc1c(Nc2cc(C)[nH]n2)nc(Sc2ccc(S(=O)(=O)C(C)(C)c3c(F)c(F)cc(F)c3F)cc2F)nc1N1CCC(OC(C)=O)CC1`, for which the IC50 is less than 100 nM.

Molecule `COc1ccc(CS(=O)(=O)c2ccc(Sc3nc(Nc4cc(C)[nH]n4)c(OC)c(N4CCOCC4)n3)c(F)c2)cc1` returned an IC50 of less than 100 nM.

Consider `COc1ccc(CS(=O)(=O)c2ccc(Sc3nc(Nc4cc(C)[nH]n4)c(OC)c(N4CCCCC4)n3)c(F)c2)cc1`, for which the IC50 is less than 100 nM.

On to `COc1c(Nc2cc(C)[nH]n2)nc(Sc2ccc(S(=O)(=O)C(C)(C)c3cccc([N+](=O)[O-])c3F)cc2F)nc1N1CCC(N(C)C(C)=O)CC1`, for which the IC50 was less than 100 nM.

In the case of `COc1c(Nc2cc(C)[nH]n2)nc(Sc2ccc(S(=O)(=O)C(C)(C)c3c(F)c(F)cc(F)c3F)cc2F)nc1N1CCC(N(C)C(C)=O)CC1`, the IC50 is less than 100 nM.

As for `COc1ccc(CS(=O)(=O)c2ccc(Sc3nc(Nc4cc(C)[nH]n4)c(OC)c(N4CCOCC4)n3)cc2)cc1`, the IC50 is less than 100 nM.

The molecule `COc1ccc(CS(=O)(=O)c2ccc(Sc3nc(Nc4cc(C)[nH]n4)c(OC)c(N4CCCCC4)n3)cc2)cc1` came in with an IC50 of less than 100 nM.

The molecule `COc1c(Nc2cc(C)[nH]n2)nc(Sc2ccc(S(=O)(=O)C(C)(C)c3c(F)c(F)cc([N+](=O)[O-])c3F)cc2F)nc1N1CCN(CCN(C)C)CC1` had an IC50 of less than 100 nM.

Take `COc1c(Nc2cc[nH]n2)nc(Sc2ccc(S(=O)(=O)Cc3cccc([N+](=O)[O-])c3F)cc2F)nc1N1CCOCC1`: the IC50 is less than 100 nM.

`COc1c(Nc2cc[nH]n2)nc(Sc2ccc(S(=O)(=O)Cc3cccc([N+](=O)[O-])c3F)cc2F)nc1N1CCCCC1` displayed an IC50 of less than 100 nM.

As for `CNC(=O)CC1CCN(c2nc(Sc3ccc(S(=O)(=O)C(C)(C)c4cccc([N+](=O)[O-])c4)cc3F)nc(Nc3cc(C)[nH]n3)c2OC)CC1`, the IC50 is less than 100 nM.

In turn, `COc1c(Nc2cc(C)[nH]n2)nc(Sc2ccc(S(=O)(=O)C(C)(C)c3cccc([N+](=O)[O-])c3F)cc2F)nc1N1CCC(N)CC1` had an IC50 of less than 100 nM.

For the molecule `COc1c(Nc2cc(C)[nH]n2)nc(Sc2ccc(S(=O)(=O)C(C)(C)c3cccc([N+](=O)[O-])c3F)cc2F)nc1N1CCC(CC(N)=O)CC1`, the IC50 is less than 100 nM.

`CNC1CCN(c2nc(Sc3ccc(S(=O)(=O)C(C)(C)c4cccc([N+](=O)[O-])c4F)cc3F)nc(Nc3cc(C)[nH]n3)c2OC)CC1`: the concentration for half-maximal inhibition (IC50) is less than 100 nM.

Molecule `COc1c(Nc2cc(C)[nH]n2)nc(Sc2ccc(S(=O)(=O)C(C)(C)c3cccnc3)cc2)nc1N1CCN(CCN(C)C)CC1` showed an IC50 of less than 100 nM.

Regarding `COc1c(Nc2cc(C)[nH]n2)nc(Sc2ccc(S(=O)(=O)C(C)(C)c3cccs3)cc2)nc1N1CCN(CCN(C)C)CC1`, the IC50 was less than 100 nM.

As to `COc1c(Nc2cc(C)[nH]n2)nc(Sc2ccc(S(=O)(=O)C(C)(C)C3CC3)cc2)nc1N1CCN(CCN(C)C)CC1`, the IC50 is less than 100 nM.

In turn, `COc1c(Nc2cc(C)[nH]n2)nc(Sc2ccc(S(=O)(=O)Cc3cccc([N+](=O)[O-])c3F)cc2F)nc1N1CCNCC1` displayed an IC50 of less than 100 nM.

The molecule `COc1c(Nc2cc(C)[nH]n2)nc(Sc2ccc(S(=O)(=O)C(C)(C)c3cccc([N+](=O)[O-])c3)cc2F)nc1N1CCC(CCNC(C)C(F)(F)F)CC1` (centres unmarked) returned an IC50 of less than 100 nM.

In turn, `COc1c(Nc2cc(C)[nH]n2)nc(Sc2ccc(S(=O)(=O)C(C)(C)c3ccccn3)cc2)nc1N1CCN(CCN(C)C)CC1` returned an IC50 of less than 100 nM.

Molecule `COc1c(Nc2cc(C)[nH]n2)nc(Sc2ccc(S(=O)(=O)C(C)(C)c3nccs3)cc2)nc1N1CCN(CCN(C)C)CC1` had an IC50 of less than 100 nM.
